Measured values reported in patent US9179674B2, “Macrocyclic picolinamide compounds with fungicidal activity” (DOW AGROSCIENCES LLC, priority 2013, dated 2015).

How the values were obtained:
Type in all cases: in vivo
[1] = tested on: Magnaporthe grisea; Anamorph: Pyricularia oryzae; experiment: whole plant or invertebrate; settings: 24 h, read-out: Disease Control PYRIOR 1DP
Venturia inaequalis = experiment: Apple Scab fungicidal activity (VENTIN); settings: 100 ppm, 1 Day Protectant
Protocol: Technical grades of materials were dissolved in acetone, which were then mixed with nine volumes of water containing 110 ppm Triton X-100. The fungicide solutions were applied onto wheat seedlings using an automated booth sprayer to run-off. All sprayed plants were allowed to air dry prior to further handling. All fungicides were evaluated using the aforementioned method for their activity vs. all target diseases. Wheat leaf blotch and brown rust activity were also evaluated using track spray applications, in which case the fungicides were formulated as EC formulations, containing 0.1% Trycol 5941 in the spray solutions. Wheat plants (variety Yuma) were grown from seed in a greenhouse in 50% mineral soil/50% soil-less Metro mix until the first leaf was fully emerged, with 7-10 seedlings per pot. These plants were inoculated with an aqueous spore suspension of Septoria tritici either prior to or after fungicide treatments. After inoculation the plants were kept in 100% relative humidity (one day in a dark dew chamber followed by two to three days in a lighted dew chamber at 20° C.) to permit spores to germinate and infect the leaf. The plants were then transferred to a greenhouse set at 20° C. for disease to develop. When disease symptoms were fully expressed on the 1st leaves of untreated plants, infection levels were assessed on a scale of 0 to 100 percent disease severity. Percent disease control was calculated using the ratio of disease severity on treated plants relative to untreated plants. Evaluation of Fungicidal Activity: Apple Scab (Venturia inaequalis; Bayer code […]) Apple seedlings (variety McIntosh) were grown in soil-less Metro mix, with one plant per pot. Seedlings with two expanding young leaves at the top (older leaves at bottom of the plants were trimmed) were used in the test. Plants were inoculated with a spore suspension of Venturia inaequalis 24 hr after fungicide treatment and kept in a 22° C. dew chamber with 100% RH for 48 hr, and then moved to a greenhouse set at 20° C. for disease to develop. Fungicide formulation, application and disease assessment on the sprayed leaves followed the procedures as described in the Example A.

Uncinula necator = experiment: Grape Powdery Mildew fungicidal activity (UNCINE); settings: Erysiphe necator, 24 h, 1 Day Protectant, read-out: Disease Control UNCINE 1DP
Protocol: Technical grades of materials were dissolved in acetone, which were then mixed with nine volumes of water containing 110 ppm Triton X-100. The fungicide solutions were applied onto wheat seedlings using an automated booth sprayer to run-off. All sprayed plants were allowed to air dry prior to further handling. All fungicides were evaluated using the aforementioned method for their activity vs. all target diseases. Wheat leaf blotch and brown rust activity were also evaluated using track spray applications, in which case the fungicides were formulated as EC formulations, containing 0.1% Trycol 5941 in the spray solutions. Wheat plants (variety Yuma) were grown from seed in a greenhouse in 50% mineral soil/50% soil-less Metro mix until the first leaf was fully emerged, with 7-10 seedlings per pot. These plants were inoculated with an aqueous spore suspension of Septoria tritici either prior to or after fungicide treatments. After inoculation the plants were kept in 100% relative humidity (one day in a dark dew chamber followed by two to three days in a lighted dew chamber at 20° C.) to permit spores to germinate and infect the leaf. The plants were then transferred to a greenhouse set at 20° C. for disease to develop. When disease symptoms were fully expressed on the 1st leaves of untreated plants, infection levels were assessed on a scale of 0 to 100 percent disease severity. Percent disease control was calculated using the ratio of disease severity on treated plants relative to untreated plants. Evaluation of Fungicidal Activity: Grape Powdery Mildew (Uncinula necator; Bayer code […]) Grape seedlings (variety Carignane) were grown in soil-less Metro mix, with one plant per pot, and used in the test when approximately one month old. Plants were inoculated 24 hr after fungicide treatment by shaking spores from infected leaves over test plants. Plants were maintained in a greenhouse set at 20° C. until disease was fully developed. Fungicide formulation, application and disease assessment on the sprayed leaves followed the procedures as described in the Example A.

Leptosphaeria nodorum = experiment: Wheat Glume Blotch fungicidal activity (LEPTNO); settings: 100 ppm, 1 Day Protectant
Protocol: Technical grades of materials were dissolved in acetone, which were then mixed with nine volumes of water containing 110 ppm Triton X-100. The fungicide solutions were applied onto wheat seedlings using an automated booth sprayer to run-off. All sprayed plants were allowed to air dry prior to further handling. All fungicides were evaluated using the aforementioned method for their activity vs. all target diseases. Wheat leaf blotch and brown rust activity were also evaluated using track spray applications, in which case the fungicides were formulated as EC formulations, containing 0.1% Trycol 5941 in the spray solutions. Wheat plants (variety Yuma) were grown from seed in a greenhouse in 50% mineral soil/50% soil-less Metro mix until the first leaf was fully emerged, with 7-10 seedlings per pot. These plants were inoculated with an aqueous spore suspension of Septoria tritici either prior to or after fungicide treatments. After inoculation the plants were kept in 100% relative humidity (one day in a dark dew chamber followed by two to three days in a lighted dew chamber at 20° C.) to permit spores to germinate and infect the leaf. The plants were then transferred to a greenhouse set at 20° C. for disease to develop. When disease symptoms were fully expressed on the 1st leaves of untreated plants, infection levels were assessed on a scale of 0 to 100 percent disease severity. Percent disease control was calculated using the ratio of disease severity on treated plants relative to untreated plants. Evaluation of Fungicidal Activity: Wheat Glume Blotch (Leptosphaeria nodorum; Bayer code […]) Wheat plants (variety Yuma) were grown from seed in a greenhouse in 50% mineral soil/50% soil-less Metro mix until the first leaf was fully emerged, with 7-10 seedlings per pot. These plants were inoculated with an aqueous spore suspension of Leptosphaeria nodorum 24 hr after fungicide treatments. After inoculation the plants were kept in 100% relative humidity (one day in a dark dew chamber followed by two days in a lighted dew chamber at 20° C.) to permit spores to germinate and infect the leaf. The plants were then transferred to a greenhouse set at 20° C. for disease to develop. Fungicide formulation, application and disease assessment followed the procedures as described in the Example A.

Row | SMILES | pest or weed control at 100 ppm [1] | Disease Control VENTIN 1DP (Venturia inaequalis) | pest or weed control at 100 ppm (Uncinula necator) | Disease Control LEPTNO 1DP (Leptosphaeria nodorum)
1 | COc1ccnc(C(=O)N[C@H]2COC[C@H](Cc3ccc(Cl)cc3Cl)[C@@H](OC(=O)C(C)C)[C@H](C)OC2=O)c1OCOC(C)=O [Compound F110] | 80 to 100% | – | – | –
2 | COc1ccnc(C(=O)N[C@H]2COC[C@H](CC3CCCC3)[C@@H](OC(=O)C(C)C)[C@H](C)OC2=O)c1OCOC(C)=O [Compound F114] | 80 to 100% | A (80-100) | 80 to 100% | –
3 | COc1ccnc(C(=O)N[C@H]2COC[C@H](CC(F)(F)F)[C@@H](OC3CCCC3)[C@H](C)OC2=O)c1OCOC(C)=O [Compound F105] | 80 to 100% | – | – | –
4 | COc1ccnc(C(=O)N[C@H]2COC[C@H](CCC(C)C)[C@@H](OCCCC(F)(F)F)[C@H](C)OC2=O)c1OCOC(C)=O [Compound F107] | 80 to 100% | – | 0 to 80% | –
5 | CCCCCO[C@@H]1[C@@H](Cc2ccc(Cl)cc2Cl)COC[C@H](NC(=O)c2nccc(OC)c2OCOC(=O)COCC)C(=O)O[C@H]1C [Compound F122] | – | A (80-100) | 80 to 100% | A (80-100)
6 | COc1ccnc(C(=O)N[C@H]2COC[C@H](Cc3ccc(C)cc3)[C@@H](OCC(C)C)[C@H](C)OC2=O)c1OC(C)=O [Compound F80] | 80 to 100% | B (More than 0-Less than 80) | 0 to 80% | A (80-100)
7 | COc1ccnc(C(=O)N[C@H]2COC[C@H](Cc3ccc(F)cc3)[C@@H](OCC(C)C)[C@H](C)OC2=O)c1OCOC(C)=O [Compound F96] | 80 to 100% | – | 80 to 100% | A (80-100)
8 | COc1ccnc(C(=O)N[C@H]2COC[C@H](Cc3ccc(Cl)cc3Cl)[C@@H](OC(=O)C(C)C)[C@H](C)OC2=O)c1OC(C)=O [Compound F73] | 80 to 100% | – | – | –
9 | COc1ccnc(C(=O)N[C@H]2COC[C@H](CCC(C)C)[C@@H](OC(=O)C3CC3)[C@H](C)OC2=O)c1OCOC(C)=O [Compound F108] | 80 to 100% | – | 80 to 100% | –
10 | COc1ccnc(C(=O)N[C@H]2COC[C@H](Cc3ccc(C)cc3)[C@@H](OCC(C)C)[C@H](C)OC2=O)c1OCOC(C)=O [Compound F117] | 80 to 100% | A (80-100) | 80 to 100% | A (80-100)
11 | COc1ccnc(C(=O)N[C@H]2COC[C@H](Cc3cccc4ccccc34)[C@@H](OC(=O)C(C)C)[C@H](C)OC2=O)c1OCOC(C)=O [Compound F83, (3S,6S,7R,8S)-3-(3-(acetoxymethoxy)-4-methoxypicolin-amido)-6-methyl-8-(naphthalen-1-ylmethyl)-4-oxo-1,5-dioxonan-7-yl isobutyrate] | 80 to 100% | A (80-100) | 0 to 80% | A (80-100)
12 | COc1ccnc(C(=O)N[C@H]2COC[C@H](CCc3ccccc3)[C@@H](OCC(C)C)[C@H](C)OC2=O)c1OCOC(C)=O [Compound F82] | 80 to 100% | – | – | –
13 | COc1ccnc(C(=O)N[C@H]2COC[C@H](Cc3ccc(F)cc3)[C@@H](OCC(C)C)[C@H](C)OC2=O)c1OC(C)=O [Compound F60] | – | – | 80 to 100% | –
14 | CCCCCO[C@@H]1[C@@H](Cc2ccc(Cl)cc2Cl)COC[C@H](NC(=O)c2nccc(OC)c2OC(=O)CCOC)C(=O)O[C@H]1C [Compound F123] | – | B (More than 0-Less than 80) | 80 to 100% | A (80-100)
